The record followed here is patent US11890287B2, “Therapeutic compounds and compositions for treating social disorders and substance use disorders” (Kinoxis Therapeutics Pty Ltd, priority 2015, dated 2024).

Molecules are shown by their SMILES.

In one series the test system is male Sprague Dawley rats. In words: Methamphetamine-primed reinstatement. To be noted: C25 10 mg/kg IP or SR49059 1 mg/kg IP before SOC-1 10 mg/kg. The class given is in vivo, rat.
The subject of series [1] is Fos-positive cells in brain regions of interest. Kind of series: Fos immunohistochemistry in rat brain. The class given is in vivo, male Wistar rats. To be noted: OT 1 mg/kg, SOC-1 5 mg/kg. The protocol:
Fos immunohistochemistry was used to identify the neural “signature” of SOC-1 (5 mg/kg) in rat brain relative to injections of peripheral oxytocin (OT) (1 mg/kg). SOC-1 produces a similar overall pattern of neural activation and behavioural effects as OT. However, the effects are much larger and additional areas are activated by SOC-1 that are implicated in the regulation of social behaviour (e.g. lateral septum, medial preoptic area and supraoptic nucleus). SOC-1 produces powerful activation of OT-containing neurons in both the supraoptic (FIG. 6: (A)=vehicle; (B)=oxytocin; and (C)=SOC-1) and paraventricular nucleus of the hypothalamus.

For the next series, the system named is HEK-293 cells. In words: Cell viability (Cell Titer Blue). Particulars: 48 hours; for Viability: mean ± SD. In kind it is cell-based. The protocol: (§1) No apparent cytotoxicity of SOC-1 has been seen in vitro or toxicity in vivo. In a test, SH-SY5Y neuroblastoma cells and HEK-293 cells (4×10^4 cells per well) were exposed to OT or SOC-1 (0.01-10 μM) for 48 hours, with daily media changes. Viability of cells was assessed after a 4 hour exposure to Cell Titer Blue (Promega).
(In general: Resazurin is reduced to fluorescent resorufin, in cell work by metabolically active cells.)

For series [2], the system named is SH-SY5Y neuroblastoma cells. In words: Cell viability (Cell Titer Blue). Particulars: 48 hours; for Viability: mean ± SD. In kind it is cell-based. Here is the method:
as §1

Another series deals with Wistar rats. Kind of series: Biotelemetry of body temperature and heart rate. The class given is in vivo, rat. Particulars: SR49059 10 mg/kg before SOC-1. Here is the method: FIG. 7—The monitored body temperatures of Wistar rats administered vehicle, SOC-1 (5 mg/kg), or SOC-1 and the V1A receptor antagonist SR49059 (10 mg/kg).
FIG. 8—The monitored heart rates for Wistar rats administered vehicle, SOC-1 (5 mg/kg), or SOC-1 and the V1A receptor antagonist SR49059 (10 mg/kg).
However, the rats were not ataxic or comatose, they were simply in a relaxed quiescent state. […] Effects on body temperature and other behaviours are not blocked by pre-treatment with the vasopressin V1A receptor antagonist SR49059 (10 mg/kg). […] The data in these two studies was gathered with DataSciences International biotelemetry system.

Take `COCc1nnc(N2CC(Oc3ccc(F)cc3Cl)C2)n1-c1ccc(OC)nc1` [C25, 5-(3-(3-(2-chloro-4-fluorophenoxy)azetidin-1-yl)-5-(methoxymethyl)-4H-1,2,4-triazol-4-yl)-2-methoxypyridine, reference compound]: the “block of the attenuating effect of SOC-1 on methamphetamine-primed reinstatement” value with male Sprague Dawley rats is “failed to block the attenuating effect of SOC-1”.
Regarding `Cn1ncc2c1Nc1ccc(F)cc1NC2` [FB-SOC-2, 7-Fluoro-1-methyl-1,4,5,10-tetrahydrobenzo[b]pyrazolo[3,4-e][1,4]diazapine], the melting point (commonly the temperature, or range, at which the solid turns liquid) lay within 181 to 183 °C.
On the same count and under the same terms, the same measure for `Cc1ccc2c(c1)NCc1cnn(C)c1N2` [FB-SOC-4, 1,7-Dimethyl-1,4,5,10-tetrahydrobenzo[b]pyrazolo[3,4-e][1,4]diazapine]: 172 to 173 °C; for `Cc1cccc2c1Nc1c(cnn1C)CN2` [FB-SOC-5, 1,9-Dimethyl-1,4,5,10-tetrahydrobenzo[b]pyrazolo[3,4-e][1,4]diazepine]: 137 to 139 °C.
The same measure, in the same setting: the same measure for `COc1ccc2c(c1)NCc1cnn(C)c1N2` [FB-SOC-6, 7-Methoxy-1-methyl-1,4,5,10-tetrahydrobenzo[b]pyrazolo[3,4-e][1,4]diazapine]: 126 to 128 °C.
Consider `CC[C@H](C)[C@@H]1NC(=O)[C@H](Cc2ccc(O)cc2)NC(=O)[C@@H](N)CSSC[C@@H](C(=O)N2CCC[C@H]2C(=O)N[C@@H](CC(C)C)C(=O)NCC(N)=O)NC(=O)[C@H](CC(N)=O)NC(=O)[C@H](CCC(N)=O)NC1=O` [Oxytocin, oxytocin, reference compound], for which, in series [1], the “Mean number of Fos-positive cells, BNST (dorsolateral division)” value was 11.33; the “Mean number of Fos-positive cells, BNST (middle anterior part))” value came out at 5.83; the “Mean number of Fos-positive cells, Central nucleus of the amygdala” value came out at 25.14; the “Mean number of Fos-positive cells, Lateral Parabrachial nucleus” value was determined as 19.14. In series [1], the “Mean number of Fos-positive cells, Lateral septum (ventral)” value worked out at 9.17; the “Mean number of Fos-positive cells, Locus Ceruleus” value turned out to be 4.14; the “Mean number of Fos-positive cells, Medial preoptic area” value came out at 3.8; the “Mean number of Fos-positive cells, Median preoptic nucleus” value is 7.17. Moreover, in series [1], the “Mean number of Fos-positive cells, Nucleus of Solitary Tract” value came out at 31.68; the “Mean number of Fos-positive cells, PAG (ventrolateral)” value stood at 6.57; the “Mean number of Fos-positive cells, Paraventircular nucleus” value came to 55.57; the “Mean number of Fos-positive cells, Supraoptic nucleus” value was determined as 4.57. Further, in series [1], the “Mean percent of OT cells that were Fos positive, Paraventircular nucleus” value is given as 22.07% and the “Mean percent of OT cells that were Fos positive, Supraoptic nucleus” value turned out to be 13.5%. Besides, the Viability with HEK-293 cells (0.01 μM) is 97.8 ± 6.6 percentage of vehicle viability. The Viability with HEK-293 cells (0.1 μM) is reported as 100.0 ± 3.2 percentage of vehicle viability. Further, the Viability with HEK-293 cells (1 μM) was 101.5 ± 3.7 percentage of vehicle viability. In addition, the Viability with HEK-293 cells (10 μM) is 104.3 ± 2.6 percentage of vehicle viability. For the same molecule, the differences in viability result in the series with HEK-293 cells (0.01-10 μM) is “No significant differences in viability”. In addition, the Viability in series [2] (0.01 μM) is 100.4 ± 2.4 percentage of vehicle viability. The Viability in series [2] (0.1 μM) is reported as 101.3 ± 1.0 percentage of vehicle viability. In series [2] (1 μM), the Viability is 100.2 ± 1.1 percentage of vehicle viability. In addition, the Viability in series [2] (10 μM) was 100.6 ± 2.9 percentage of vehicle viability. The differences in viability result in series [2] (0.01-10 μM) is recorded as “No significant differences in viability”.
Turning to `COc1ccc(S(=O)(=O)N2c3ccc(Cl)cc3[C@](O)(c3ccccc3Cl)[C@@H]2C(=O)N2CCC[C@H]2C(N)=O)cc1OC` [SR49059, reference compound], in the series with male Sprague Dawley rats, the “block of the attenuating effect of SOC-1 on methamphetamine-primed reinstatement” value is given as “failed to block the attenuating effect of SOC-1”. Moreover, the “block of SOC-1 effects on body temperature and other behaviours by pre-treatment” value with Wistar rats is given as “not blocked”.
